Reference: patent publication US10696677B2 (Research Triangle Institute, priority 2016, dated 2020)

Columns and labels:
hCB1 [1] = biological target: T1, hCB1 (Homo sapiens, UniProt P21554); experiment: functional fluorescent CB1 activated Gαq16-coupled intracellular calcium mobilization assay in CHO-K1 cells; format: cell-based; design: expressed in transfected cells; host or cells: CHO-K1 (membranes); settings: average of 3-6 measurements, read-out: Apparent antagonist dissociation constant (Ke) at hCB1
hCB2 = hCB2 (Homo sapiens, UniProt P34972); experiment: radioligand displacement binding at CB2 ([3H]CP55940, membranes of CHO-K1 cells over-expressing receptor); settings: read-out: Binding affinity (Ki) at hCB2; displacement of [3H]CP55940, CHO-K1 membranes; average of 3-6 measurements
Description: (§1) All compounds were characterized by H^1 NMR and evaluated using a calcium mobilization assay. […] Further characterization of select compounds was performed using radioligand displacement of [3H]1 and equilibrium dissociation constant (Ki) values were determined.

MDCK = MDCK BBB Assay; format: in vitro ADME; settings: MDCK BBB assay
hCB1 [2] = biological target: T1, hCB1; experiment: radioligand displacement binding at CB1 (membranes of CHO-K1 cells over-expressing receptor); settings: read-out: Binding affinity (Ki) at hCB1; radioligand displacement, CHO-K1 membranes; average of 3-6 measurements
Description: as §1

T1 sequence (P21554 whole entry): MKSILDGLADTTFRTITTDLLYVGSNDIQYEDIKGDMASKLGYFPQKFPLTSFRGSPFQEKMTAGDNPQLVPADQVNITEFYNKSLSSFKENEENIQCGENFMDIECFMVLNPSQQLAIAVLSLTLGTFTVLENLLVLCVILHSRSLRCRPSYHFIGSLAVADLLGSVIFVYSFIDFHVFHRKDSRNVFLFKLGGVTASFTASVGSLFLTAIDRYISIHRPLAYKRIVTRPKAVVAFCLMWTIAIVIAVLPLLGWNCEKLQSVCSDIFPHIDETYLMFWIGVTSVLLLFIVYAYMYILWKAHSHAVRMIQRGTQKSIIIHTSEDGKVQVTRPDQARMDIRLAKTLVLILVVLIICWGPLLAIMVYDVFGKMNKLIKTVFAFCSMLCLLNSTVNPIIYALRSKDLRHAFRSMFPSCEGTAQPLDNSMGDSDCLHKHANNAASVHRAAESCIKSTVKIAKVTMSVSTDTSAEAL
Sequence of hCB2 (P34972 whole entry): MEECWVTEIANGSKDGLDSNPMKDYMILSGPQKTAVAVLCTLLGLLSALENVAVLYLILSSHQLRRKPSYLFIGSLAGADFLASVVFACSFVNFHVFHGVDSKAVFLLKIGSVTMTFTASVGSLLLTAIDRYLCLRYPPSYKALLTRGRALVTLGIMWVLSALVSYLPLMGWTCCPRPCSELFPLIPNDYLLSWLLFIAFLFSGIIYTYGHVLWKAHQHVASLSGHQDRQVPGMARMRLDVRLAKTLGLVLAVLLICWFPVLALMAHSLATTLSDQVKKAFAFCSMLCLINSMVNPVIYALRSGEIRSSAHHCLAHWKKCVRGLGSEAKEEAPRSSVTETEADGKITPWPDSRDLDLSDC

| Structure (SMILES) | Kb (hCB1 [1]) [nM] | melting point [°C] | Ki (hCB2) [nM] | % Permeable (MDCK) [%] | Ki (hCB1 [2]) [nM] |
| --- | --- | --- | --- | --- | --- |
| N=C(Nc1ccc(F)cc1)NC1CCN(c2ncnc3c2nc(-c2ccccc2Cl)n3-c2ccc(Cl)cc2)CC1 [Compound 27, 1-{1-[8-(2-chlorophenyl)-9-(4-chlorophenyl)-9H-purin-6-yl]piperidin-4-yl}-3-(4-fluorophenyl)guanidine] | 600 | – | – | – | – |
| Clc1ccc(-n2c(-c3ccccc3Cl)nc3c(N4CCC(Nc5ccncc5)CC4)ncnc32)cc1 [Compound 36, N-{1-[8-(2-chlorophenyl)-9-(4-chlorophenyl)-9H-purin-6-yl]piperidin-4-yl}pyridin-4-amine] | 100 | – | – | – | – |
| Clc1ccc(-n2c(-c3ccccc3Cl)nc3c(N4CCC(NCc5ccccc5)CC4)ncnc32)cc1 [Compound 37, N-benzyl-1-[8-(2-chlorophenyl)-9-(4-chlorophenyl)-9H-purin-6-yl]piperidin-4-amine] | 59 | – | – | – | – |
| Clc1ccc(-n2c(-c3ccccc3Cl)nc3c(N4CCC(NCc5ccncc5)CC4)ncnc32)cc1 [Compound 38, 1-[8-(2-chlorophenyl)-9-(4-chlorophenyl)-9H-purin-6-yl]-N-(pyridin-4-ylmethyl)piperidin-4-amine] | 360 | – | – | – | – |
| Fc1ccc(CNC2CCN(c3ncnc4c3nc(-c3ccccc3Cl)n4-c3ccc(Cl)cc3)CC2)cc1 [Compound 40, 1-[8-(2-chlorophenyl)-9-(4-chlorophenyl)-9H-purin-6-yl]-N-(4-fluorobenzyl)piperidin-4-amine] | 82 | – | – | – | – |
| CN(Cc1ccc(F)cc1)C1CCN(c2ncnc3c2nc(-c2ccccc2Cl)n3-c2ccc(Cl)cc2)CC1 [Compound 41, 1-[8-(2-chlorophenyl)-9-(4-chlorophenyl)-9H-purin-6-yl]-N-(4-fluorobenzyl)-N-methylpiperidin-4-amine] | 185 | – | – | – | – |
| O=C(Nc1ccc(F)c(F)c1)N1CCN(c2ncnc3c2nc(-c2ccccc2Cl)n3-c2ccc(Cl)cc2)CC1 [Compound 42, 4-[8-(2-Chlorophenyl)-9-(4-chlorophenyl)-9H-purin-6-yl]-N-(3,4-difluorophenyl)piperazine-1-carboxamide] | – | 205 to 207 | 4200 | 0 | – |
| Clc1ccc(-n2c(-c3sccc3Cl)nc3c(N4CCN(Cc5ccccc5Cl)CC4)ncnc32)cc1 [Compound 52, 6-[4-(2-chlorobenzyl)piperazin-1-yl]-9-(4-chlorophenyl)-8-(3-chlorothiophen-2-yl)-9H-purine] | 220 | – | – | – | – |
| Cc1noc(C)c1-c1nc2c(N3CCN(Cc4ccccc4Cl)CC3)ncnc2n1-c1ccc(Cl)cc1 [Compound 53, 6-[4-(2-chlorobenzyl)piperazin-1-yl]-9-(4-chlorophenyl)-8-(3,5-dimethylisoxazol-4-yl)-9H-purine] | 110 | – | – | – | – |
| O=C(NC1CCCC1)N1CCN(c2ncnc3c2nc(-c2ccccc2Cl)n3-c2ccc(Cl)cc2)CC1 [Compound 117, 4-[8-(2-Chlorophenyl)-9-(4-chlorophenyl)-9H-purin-6-yl]-N-cyclopentylpiperazine-1-carboxamide] | – | 248 to 250 | 740 | 3 | 5 |
| O=C(NCC1CCCCC1)N1CCN(c2ncnc3c2nc(-c2ccccc2Cl)n3-c2ccc(Cl)cc2)CC1 [Compound 120, 4-[8-(2-chlorophenyl)-9-(4-chlorophenyl)-9H-purin-6-yl]-N-(cyclohexylmethyl)piperazine-1-carboxamide] | – | 105 to 107 | 740 | – | 43 |
| O=C(Nc1ccccc1)N1CCN(c2ncnc3c2nc(-c2ccccc2Cl)n3-c2ccc(Cl)cc2)CC1 [Compound 121, 4-[8-(2-chlorophenyl)-9-(4-chlorophenyl)-9H-purin-6-yl]-N-phenylpiperazine-1-carboxamide] | – | 121 to 123 | 2400 | – | 6 |
| O=C(Nc1ccccn1)N1CCN(c2ncnc3c2nc(-c2ccccc2Cl)n3-c2ccc(Cl)cc2)CC1 [Compound 122, 4-[8-(2-Chlorophenyl)-9-(4-chlorophenyl)-9H-purin-6-yl]-N-(pyridin-2-yl)piperazine-1-carboxamide] | – | 120 to 122 | 7100 | 1 | 6 |
